Test results as given in article PMC6092981 (Bioinorganic Chemistry and Applications, 2018).
Structures can show the parent of a compound that is named as a salt. Each block holds one molecule with its values, some of them ahead of it. Where a SMILES comes first, the peptide text is derived from it. Where no end group is shown, it is not given here. The star is where a group is joined. Cbz = O=C(OCc1ccccc1)*; CH2F = FC*

Key:
Jurkat cells [1] = assay: PI staining microscopy of Jurkat cells with 5 in the presence of inhibitors; format: cell-based, human; settings: nicardipine 50 µM, verapamil 20 µM, 37°C 1 h, then 5 (35 µM) 24 h
Protocol: The cells were then washed twice with ice-cold PBS containing 0.5% FCS and 0.1% NaN3 and incubated with PI in PBS at room temperature for 10–15 min.

Jurkat cells [2] = assay: MTT assay of Jurkat cells in the presence of caspase, necroptosis and necrosis inhibitors; format: cell-based, human; settings: Z-VAD-FMK 15 µM, 24 h, 37°C; for inhibition of cell death induced by 5: necrostatin-1 30 µM, IM-54 10 µM, 1 h pre-incubation, 5 75 µM, MTT
Protocol: Jurkat cells (1.0 × 10^5 cells/mL) were incubated in 10% FCS RPMI 1640 medium (MTG-free) containing a solution Z-VAD-fmk (15 µM)/necrostatin-1 (30 µM)/IM-54 (10 µM)/(under 5% CO2 at 37°C for 1 h in 96-well plates (BD Falcon). Then, Ir complexes (75 µM) were added and incubated under 5% CO2 at 37°C for 24 h, and then 0.5% MTT reagent in PBS buffer (10 µL) was added to the cells and incubated under 5% CO2 at 37°C for 4 h. A formazan lysis solution (10% SDS in 0.01 N HCl) (100 µL) was added, and the resulting solution incubated overnight under the same conditions, followed by measurement of absorbance at 570 nm with a microplate reader (Bio-Rad).

[3] = biological target: DR5 (immobilised on the QCM sensor chip) (UniProt O14763 56-440); assay: 27 MHz quartz crystal microbalance (QCM); DR5 immobilised by EDC/NHS on a 3,3'-dithiodipropionic acid layer on the Au electrode, blocked with ethanolamine; analytes added in PBS, 25°C; apparent constants from the decrease in frequency, 1:1 complexation assumed, Kd = 1/Kapp; settings: both partners purified

Molecule: COC(=O)C1=C(C)NC(C)=C(C(=O)OCCN(C)Cc2ccccc2)C1c1cccc([N+](=O)[O-])c1 (stereo not shown) [nicardipine, nicardipine hydrochloride]
inhibition of cell death induced by 5 (Jurkat cells [1]): considerably inhibited

Molecule: CCCCCNC1=C(c2cn(C)c3ccccc23)C(=O)N(C)C1=O [IM-54]
inhibition of cell death induced by 5 (Jurkat cells [2]): negligibly inhibited

Molecule: CN1C(=O)C(Cc2c[nH]c3ccccc23)NC1=S (stereo not shown) [Necrostatin-1]
inhibition of cell death induced by 5 (Jurkat cells [2]): negligibly inhibited

Molecule: COC(=O)C[C@H](NC(=O)[C@H](C)NC(=O)[C@@H](NC(=O)OCc1ccccc1)C(C)C)C(=O)CF [Z-VAD-FMK, Z-Val-Ala-Asp(OMe) fluoromethylketone] (Cbz-Val-Ala-Asp(OMe)-CH2F)
inhibition of cell death induced by 5 (Jurkat cells [2]): negligibly inhibited
inhibition of TRAIL-induced cell death (Jurkat cells [2]; TRAIL 150 ng/mL, MTT and flow cytometry (PI)): almost completely

Ka [3]: < 10000 M⁻¹
Kd [3]: > 100 µM
B1: Ir complex 2c (contains a KKGG peptide) (other)
peptide: KKGG
modifications: also: joined to a cyclometalated Ir(III) complex
notes: cationic peptide H2N-KKGG- on the Ir complex
